Values after ≈ are worked out from the molar mass of the structure shown.
Experiments:
S. aureus ATCC 10390 [1] = experiment: Estimated MIC, solution-phase microdilution absorbance assay with crude macroarray spot stock solutions; assay type: cell-based, Staphylococcus aureus; conditions: for MIC: Staphylococcus aureus, ATCC10390, 12 h
Experimental: Spots from a new 69 member chalcone macroarray as well as the three heterocyclic macroarrays prepared earlier were punched out, cleaved, and eluted with acetonitrile. The resulting solutions were concentrated to a residue that was taken up in DMSO to form 2 mM stock solutions.
From the stock solutions, microdilution assays in a 96 well plate starting at 50 μM were performed in quadruplicate. Each well contained 5 μL of the stock solution as well as 195 μL of a S. aureus culture. The turbidity of each well was measured after incubating 12 hours using a standard plate reader. Active compounds can be further diluted and the assay repeated.
To acquire more quantitative antibacterial activity data about our compounds and verify our on-support assay results, we performed solution-phase absorbance assays that provided estimates of the minimum inhibitory concentration (MIC) of each macroarray member against S. aureus. Stock solutions (ca. 2 mM) were generated by cleaving and eluting 198 individual compounds from chalcone (3) and heterocyclic macroarrays (5, 7, and 8). […] The good overall purities of the crude macroarray compounds allowed for reasonable estimations of MICs.
(§1) For estimated MIC determination, DMSO was added to the dried compound residue obtained from a single spot to afford ca. 100 μL of a 2 mM stock solution. Aliquots (5 μL) of these solutions were added to a 96-well plate, followed by 195 μL of diluted S. aureus 10390 (10^6 CFUs/mL) to yield ca. 50 μM final concentrations. The plates were swirled for 1 h to ensure compound dissolution, incubated for 12 h at 37° C., and the absorbance at 595 nm was recorded using a plate reader. […] Actual MIC values were determined for lead compounds resynthesized in solution using an analogous procedure with solutions of known concentration (see).
Preparation of spot samples and controls. An aliquot of DMSO (ca. 100 μL depending on the loading of the parent hydroxyacetophenone) was added to the dried compound residue obtained after TFA cleavage and elution from a single spot. This afforded a 2.0 mM “spot stock” solution for each spot. A small aliquot of each “spot stock” solution was saved for subsequent LC-MS analysis.
For estimated MIC screens, 5.0 μL portions of the “spot stock” solutions were added to the appropriate wells in a sterile, polystyrene 96-well plate to yield ca. 50 μM solutions (dependent on the initial loading of hydroxyacetopheneone and compound purity). To the positive and negative control wells, 5.0 μL of DMSO were added (positive controls contained bacteria but no compound, while negative controls had neither compound nor bacteria). All estimated MIC assays were performed in quadruplicate. Note: the MIC value is defined as the lowest concentration where no bacterial growth occurs.
Representative estimated MIC assay procedure. This assay procedure is based in part on the method reported by Strøm et al.^xiii A 400 μL portion of overnight S. aureus 10390 culture was diluted with 100 mL of sterile LB broth to give ca. 10^6 CFUs per mL. Aliquots (195 μL) of this solution were added to all of the wells in a sterile 96-well plate (except for the negative control wells; 195 μL of sterile LB broth were added to these wells). The plates were placed on an orbital shaker table and gently swirled for 1 h to ensure compound dissolution, and then incubated (without shaking) for 12 h at 37° C. The absorbance at 595 nm was recorded using a plate reader.
The original “spot stock” solutions of these compounds were diluted with DMSO to give ca. 25 and 13 μM final concentrations and tested for inhibitory activities using the procedure described above.

S. aureus ATCC 10390 [2] = experiment: MIC determination with authentic compounds resynthesized in solution; assay type: cell-based, Staphylococcus aureus; conditions: for MIC: Staphylococcus aureus, ATCC10390
Experimental: as §1
(§2) Dose response growth inhibition curves were determined for each active compound (resynthesized in solution) against S. aureus 10390 (SA) and methicillin-resistant S. aureus 33591 (MRSA). […] MIC assays were performed in quadruplicate.

[3] = system: Methicillin-resistant S. aureus ATCC 33591 (MRSA); experiment: as above; assay type: cell-based; conditions: Staphylococcus aureus; Table 3; authentic sample, only trans isomers of chalcones; error reflects step size in the serial dilutions
Experimental: as §1, §2

S. aureus 10390 = experiment: Time-dependent bacterial killing curves; assay type: cell-based, Staphylococcus aureus; conditions: 0.5x to 4x MIC, 0-6 h
Experimental: Solutions of compounds 4Bv, 6Ao, 9Cf, and linezolid were prepared in DMSO over a range of concentrations. […] At 0, 2, 4, and 6 h time points, […] samples were withdrawn from the test tubes, diluted into 10 mL of LB broth in a test tube, and swabbed in duplicate on agar plates to determine CFUs. These plates were incubated at 37° C. for 24 h, after which time the colonies were counted visually. […] Instead, 200 μL was removed from the test tube and directly swabbed on the agar plates.

MIC (S. aureus ATCC 10390 [1]; Table 2, serial dilution of stock solutions obtained by SPOT-synthesis, read-out: estimated MIC range): 6.25 to 12.5 µM (≈ 2.25 to 4.5 µg/mL)
MIC (S. aureus ATCC 10390 [1]; Table 3, serial dilution of spot stock solutions of crude macroarray compounds, read-out: S. aureus Estimated MIC range): < 12.5 µM
MIC (S. aureus ATCC 10390 [2]; Table 2, authentic sample synthesized according to standard techniques, read-out: observed MIC): 3.3 ± 0.3 µM (≈ 1.19 µg/mL)
MIC (S. aureus ATCC 10390 [2]; Table 3, authentic sample, only trans isomers of chalcones, error reflects step size in the serial dilutions, read-out: S. aureus MIC): 3.5 ± 0.5 µM (≈ 1.26 µg/mL)
MIC [3]: 3 ± 0.5 µM (≈ 1.08 µg/mL)
Structure (SMILES): O=C(/C=C/c1cc(C(F)(F)F)cc(C(F)(F)F)c1)c1cccc(O)c1 [Compound 4Bv, 3′-hydroxy-3,5-bis(trifluoromethyl)chalcone]
inhibition of S. aureus at the 12.5 μM level (S. aureus ATCC 10390 [1]; 12.5 μM, macroarray stock solutions diluted four fold): complete inhibition
MIC against S. aureus 10390 (S. aureus ATCC 10390 [2]; values quoted in killing-curve protocol, unit not given): ca. 3.5
mode of activity (bacteriostatic or bactericidal) (S. aureus 10390): bacteriostatic

From patent publication US8227616B2, “Cyanopyridine antibacterial agents and methods of use thereof” (Wisconsin Alumni Research Foundation, priority 2006, dated 2012)
